Experimental data reported in PubChem BioAssay (NCI).
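How tested: cells in 96-well plates exposed to compound for 48 hours at five concentrations. GI50 marks 50% less growth. The concentration for full growth arrest is given as TGI.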

Tests used:
Test in all cases: NCI tumour cell line growth inhibition, 48 h
786-0 renal = tested on: 786-0 renal
A549 NSCLC = tested on: A549 NSCLC
ACHN renal = tested on: ACHN renal
IGROV1 ovarian = tested on: IGROV1 ovarian
NCI-H460 lung = tested on: NCI-H460 lung
OVCAR-3 ovarian = tested on: OVCAR-3 ovarian
RXF 393 renal = tested on: RXF 393 renal
U251 CNS = tested on: U251 CNS
UACC-257 melanoma = tested on: UACC-257 melanoma
UO-31 renal = tested on: UO-31 renal

O=C1NC(=O)C2=C1CCC2O (centres undefined)
TGI (786-0 renal): > 100 µM | TGI (A549 NSCLC): > 100 µM | TGI (ACHN renal): > 100 µM | TGI (IGROV1 ovarian): > 100 µM | TGI (NCI-H460 lung): > 100 µM | TGI (OVCAR-3 ovarian): > 100 µM | TGI (RXF 393 renal): > 100 µM | TGI (U251 CNS): > 100 µM | TGI (UACC-257 melanoma): > 100 µM | TGI (UO-31 renal): > 100 µM

C=C1C(=O)O[C@H]2[C@H]1CC/C(COC(=O)/C=C/c1cccnc1)=C\CC[C@@]1(C)O[C@@H]21
GI50 (786-0 renal): 1.1 µM | TGI (786-0 renal): 2.58 µM | GI50 (A549 NSCLC): 9.86 µM | TGI (A549 NSCLC): 23.6 µM | GI50 (IGROV1 ovarian): 2.07 µM | TGI (IGROV1 ovarian): 7.86 µM | GI50 (NCI-H460 lung): 5.12 µM | TGI (NCI-H460 lung): 20 µM | GI50 (OVCAR-3 ovarian): 0.494 µM | TGI (OVCAR-3 ovarian): 1.76 µM | GI50 (RXF 393 renal): 0.75 µM | TGI (RXF 393 renal): 2.15 µM | GI50 (U251 CNS): 5.74 µM | TGI (U251 CNS): 18.3 µM | GI50 (UACC-257 melanoma): 1.73 µM | TGI (UACC-257 melanoma): 3.54 µM | GI50 (UO-31 renal): 1.11 µM | TGI (UO-31 renal): 2.51 µM

O=C(O)CSCC(=O)c1ccccc1
TGI (786-0 renal): > 100 µM | TGI (A549 NSCLC): > 100 µM | TGI (ACHN renal): > 100 µM | TGI (IGROV1 ovarian): > 100 µM | TGI (NCI-H460 lung): > 100 µM | TGI (OVCAR-3 ovarian): > 100 µM | TGI (RXF 393 renal): > 100 µM | TGI (U251 CNS): > 100 µM | TGI (UACC-257 melanoma): > 100 µM | TGI (UO-31 renal): > 100 µM

O=C(O)C1CCCN1Cc1c[nH]c2ccccc12 (centres undefined)
TGI (786-0 renal): > 100 µM | TGI (A549 NSCLC): > 100 µM | TGI (ACHN renal): > 100 µM | TGI (IGROV1 ovarian): > 100 µM | TGI (NCI-H460 lung): > 100 µM | TGI (OVCAR-3 ovarian): > 100 µM | TGI (RXF 393 renal): > 100 µM | TGI (U251 CNS): > 100 µM | TGI (UACC-257 melanoma): > 100 µM | TGI (UO-31 renal): > 100 µM

O=C(Oc1cccc(Nc2ncnc3ccccc23)c1)c1ccccc1Cl
GI50 (786-0 renal): 20.8 µM | TGI (786-0 renal): 71.9 µM | GI50 (A549 NSCLC): 25.9 µM | TGI (A549 NSCLC): > 100 µM | GI50 (ACHN renal): 23.1 µM | TGI (ACHN renal): 62 µM | GI50 (IGROV1 ovarian): 14.9 µM | TGI (IGROV1 ovarian): > 100 µM | GI50 (NCI-H460 lung): 20.3 µM | TGI (NCI-H460 lung): 52.7 µM | GI50 (OVCAR-3 ovarian): 16.7 µM | TGI (OVCAR-3 ovarian): 56.9 µM | GI50 (RXF 393 renal): 24.8 µM | TGI (RXF 393 renal): 70.6 µM | GI50 (U251 CNS): 25.4 µM | TGI (U251 CNS): 63.5 µM | GI50 (UACC-257 melanoma): 26.6 µM | TGI (UACC-257 melanoma): 57.1 µM | GI50 (UO-31 renal): 36.4 µM | TGI (UO-31 renal): > 100 µM

O=C1C2c3[nH]c4ccccc4c3C3CCSCC3C2C(=O)N1c1ccccc1 (centres undefined)
TGI (786-0 renal): > 100 µM | TGI (A549 NSCLC): > 100 µM | TGI (ACHN renal): > 100 µM | TGI (IGROV1 ovarian): > 100 µM | TGI (NCI-H460 lung): > 100 µM | TGI (OVCAR-3 ovarian): > 100 µM | TGI (RXF 393 renal): > 100 µM | TGI (U251 CNS): > 100 µM | TGI (UACC-257 melanoma): > 100 µM | TGI (UO-31 renal): > 100 µM

COC(=O)C1Cc2c(n(C)c3ccccc23)C(c2ccccc2)N1 (centres undefined)
TGI (786-0 renal): > 100 µM | TGI (A549 NSCLC): > 100 µM | TGI (ACHN renal): > 100 µM | TGI (IGROV1 ovarian): > 100 µM | TGI (NCI-H460 lung): > 100 µM | TGI (OVCAR-3 ovarian): > 100 µM | TGI (U251 CNS): > 100 µM | TGI (UACC-257 melanoma): 32 µM | TGI (UO-31 renal): > 100 µM

CCOC(=O)c1sc2ncn(Cc3cccc(Cl)c3)c(=O)c2c1C
GI50 (786-0 renal): 13.1 µM | TGI (786-0 renal): 25.7 µM | GI50 (A549 NSCLC): 16.4 µM | TGI (A549 NSCLC): 30 µM | GI50 (ACHN renal): 14.7 µM | TGI (ACHN renal): 27.9 µM | GI50 (IGROV1 ovarian): 8.89 µM | TGI (IGROV1 ovarian): 21.2 µM | GI50 (NCI-H460 lung): 18.7 µM | TGI (NCI-H460 lung): 39.7 µM | GI50 (OVCAR-3 ovarian): 12.6 µM | TGI (OVCAR-3 ovarian): 25.1 µM | GI50 (RXF 393 renal): 16.6 µM | TGI (RXF 393 renal): 30.2 µM | GI50 (U251 CNS): 12.9 µM | TGI (U251 CNS): 25.6 µM | GI50 (UACC-257 melanoma): 15.6 µM | TGI (UACC-257 melanoma): 29.3 µM | GI50 (UO-31 renal): 13.5 µM | TGI (UO-31 renal): 26.4 µM

CN(C)CCCNC(=O)c1cc(NC(=O)c2cc(NC(=O)CCCN3c4ccccc4C=Cc4ccccc43)cn2C)cn1C
GI50 (786-0 renal): 11.4 µM | TGI (786-0 renal): > 100 µM | GI50 (A549 NSCLC): 11.5 µM | TGI (A549 NSCLC): 39.9 µM | GI50 (ACHN renal): 14.7 µM | TGI (ACHN renal): 33.6 µM | GI50 (IGROV1 ovarian): 3.36 µM | TGI (IGROV1 ovarian): 8.8 µM | GI50 (NCI-H460 lung): 5.19 µM | TGI (NCI-H460 lung): > 100 µM | GI50 (OVCAR-3 ovarian): 13.4 µM | TGI (OVCAR-3 ovarian): 54.2 µM | GI50 (RXF 393 renal): 8.61 µM | TGI (RXF 393 renal): 85 µM | GI50 (UACC-257 melanoma): 4.5 µM | TGI (UACC-257 melanoma): 30.6 µM | GI50 (UO-31 renal): 23.5 µM | TGI (UO-31 renal): 59.7 µM

COc1cccc2c(Nc3ccc(C(=O)NCCNCCO)cc3)cc(-c3ccccc3)nc12
GI50 (786-0 renal): 33.5 µM | TGI (786-0 renal): > 100 µM | GI50 (A549 NSCLC): > 100 µM | TGI (A549 NSCLC): > 100 µM | GI50 (IGROV1 ovarian): 20.4 µM | TGI (IGROV1 ovarian): 48.7 µM | GI50 (OVCAR-3 ovarian): 39.2 µM | TGI (OVCAR-3 ovarian): > 100 µM | GI50 (RXF 393 renal): 33.1 µM | TGI (RXF 393 renal): 93.1 µM | GI50 (U251 CNS): 5.89 µM | TGI (U251 CNS): 24.9 µM | GI50 (UACC-257 melanoma): 39 µM | TGI (UACC-257 melanoma): > 100 µM | GI50 (UO-31 renal): > 100 µM | TGI (UO-31 renal): > 100 µM

CC1(c2ccccc2)CC12C(=O)NC(=O)NC2=O (centres undefined)
TGI (786-0 renal): > 100 µM | TGI (A549 NSCLC): > 100 µM | TGI (ACHN renal): > 100 µM | TGI (IGROV1 ovarian): > 100 µM | TGI (OVCAR-3 ovarian): > 100 µM | TGI (U251 CNS): > 100 µM | TGI (UACC-257 melanoma): > 100 µM | TGI (UO-31 renal): > 100 µM

CC(=O)C(C(=N)C#N)C(=O)Nc1ccccc1 (centres undefined)
TGI (786-0 renal): > 100 µM | TGI (A549 NSCLC): > 100 µM | TGI (ACHN renal): > 100 µM | TGI (IGROV1 ovarian): > 100 µM | TGI (NCI-H460 lung): > 100 µM | TGI (OVCAR-3 ovarian): > 100 µM | TGI (RXF 393 renal): > 100 µM | TGI (U251 CNS): > 100 µM | TGI (UACC-257 melanoma): > 100 µM

Clc1ccc(Nc2ccnc(NCCNc3ccnc4cc(Cl)ccc34)n2)cc1
GI50 (786-0 renal): 1.62 µM | TGI (786-0 renal): 3.44 µM | GI50 (A549 NSCLC): 1.53 µM | TGI (A549 NSCLC): 3.1 µM | GI50 (ACHN renal): 1.63 µM | TGI (ACHN renal): 3.09 µM | GI50 (IGROV1 ovarian): 1.43 µM | TGI (IGROV1 ovarian): 3.12 µM | GI50 (NCI-H460 lung): 1.34 µM | TGI (NCI-H460 lung): 2.86 µM | GI50 (OVCAR-3 ovarian): 1.36 µM | TGI (OVCAR-3 ovarian): 2.69 µM | GI50 (U251 CNS): 1.33 µM | TGI (U251 CNS): 2.67 µM | GI50 (UACC-257 melanoma): 1.68 µM | TGI (UACC-257 melanoma): 3.17 µM | GI50 (UO-31 renal): 1.21 µM | TGI (UO-31 renal): 2.6 µM

Cc1c(C(=O)N/N=C/c2ccc(O)cc2)nnn1-c1ccnc2c(C(F)(F)F)cccc12
GI50 (786-0 renal): 44.4 µM | TGI (786-0 renal): > 100 µM | GI50 (A549 NSCLC): > 100 µM | TGI (A549 NSCLC): > 100 µM | GI50 (ACHN renal): 41.1 µM | TGI (ACHN renal): > 100 µM | GI50 (IGROV1 ovarian): > 100 µM | TGI (IGROV1 ovarian): > 100 µM | GI50 (NCI-H460 lung): > 100 µM | TGI (NCI-H460 lung): > 100 µM | GI50 (OVCAR-3 ovarian): > 100 µM | TGI (OVCAR-3 ovarian): > 100 µM | GI50 (RXF 393 renal): 5.22 µM | TGI (RXF 393 renal): 34.6 µM | GI50 (UACC-257 melanoma): > 100 µM | TGI (UACC-257 melanoma): > 100 µM | GI50 (UO-31 renal): > 100 µM | TGI (UO-31 renal): > 100 µM

CC(=O)CC(=O)CCCC(=O)Nc1ccc(Cl)cc1Cl
TGI (786-0 renal): > 100 µM | TGI (A549 NSCLC): > 100 µM | TGI (ACHN renal): > 100 µM | TGI (IGROV1 ovarian): > 100 µM | TGI (NCI-H460 lung): > 100 µM | TGI (OVCAR-3 ovarian): > 100 µM | TGI (UACC-257 melanoma): > 100 µM | TGI (UO-31 renal): > 100 µM

O=C(Nc1cccc(C2=NCCN2)c1)c1ccc(OCCCOc2ccc(C(=O)Nc3cccc(C4=NCCN4)c3)cc2)cc1
GI50 (786-0 renal): 3.69 µM | TGI (786-0 renal): > 100 µM | GI50 (ACHN renal): 21.8 µM | TGI (ACHN renal): > 100 µM | GI50 (RXF 393 renal): 5.78 µM | TGI (RXF 393 renal): > 100 µM | GI50 (UO-31 renal): 13.5 µM | TGI (UO-31 renal): > 100 µM

COc1cccc(/C=C\c2cc(OC)c(OC)c(OC)c2)c1
TGI (786-0 renal): 71.5 µM | TGI (A549 NSCLC): > 100 µM | TGI (ACHN renal): > 100 µM | TGI (IGROV1 ovarian): > 100 µM | TGI (NCI-H460 lung): > 100 µM | TGI (OVCAR-3 ovarian): 79.1 µM | TGI (U251 CNS): 23 µM | TGI (UACC-257 melanoma): 47.3 µM | TGI (UO-31 renal): 33 µM
